From patent US20050208139A1 (Ascend Therapeutics, Inc., priority 2004, published 2005)

Experiments:
[1] = Isomerization of 4-hydroxy tamoxifen in hydroalcoholic solutions at 25°, 30° and 40° C., Z/E isomers by HPLC (Example 1); format: physicochemical
Procedure: Hydroalcoholic solutions containing 4-hydroxy tamoxifen were prepared, based on the following gel formula: […]
In the hydroalcoholic solutions, phosphate buffer was substituted for Klucel. The composition of the buffer was as follows:
At each of the stated concentrations, separate solutions containing Z-4-hydroxy tamoxifen or a mixture of Z- and E-4-hydroxy tamoxifen were prepared.
Each solution was subdivided into three parts in 30 ml brown glass bottles, then placed in ovens regulated at 25°, 30°, and 40° C.
The relative amounts of Z- and E-4-hydroxy tamoxifen isomers were determined at the initiation of the study and at 2-week, 1-month, 2-month, 3-month, 4-month and 5-month time points.
Operating parameters for the HPLC were as follows:
The order of elution was as follows: • 4-OHT E: retention time about 13.3 min • 4-OHT Z: retention time about 15.0 min.
Percentages of each isomer were calculated using the following formulas: [formula] [formula] D. Data fitting:
The reversible isomerization reaction and the equilibrium reaches are lied by the following relationship: [formula] where • A0=initial concentration of the reagent • Aeq=concentration of the same reagent at equilibrium • A=the concentration of A at time t • kf=forward rate constant • kr=reverse rate constant • t=time measured in months
A plot of log [formula] as a function of time gives a straight line fit with a slope of [formula] and a y-intercept of 0. E. Results

[2] = tested on: normal and cancerous breast cells; conditions: in vitro; cited from earlier work
[3] = cited from earlier work
[4] = Effects of UV light on isomerization (Example 4); format: physicochemical; conditions: room temperature
estrogen receptors = conditions: in vitro; cited from earlier work
[5] = 254 nm, T0, degradation impurity (phenanthrene derivative)

CCC(=C(c1ccc(O)cc1)c1ccc(OCCN(C)C)cc1)c1ccccc1 [4-hydroxy tamoxifen, 1-[4-(2-N-dimethylaminoethoxy)phenyl]-1-(4-hydroxyphenyl)-2-phenylbut-1-ene]
magnitude of the rate constants for the reversible isomerism as nominal concentration varied from 0.02% to 0.10% [1]: increased linearly
growth of both normal and cancerous breast cells [2]: inhibits the growth
extent of isomerization ([3]; Katzenellenbogen et al., isomers initially 99% pure, after 2 days in tissue culture medium at 37° C.): 20%
time within which spontaneous isomerization of Z- into E-4-hydroxy tamoxifen occurred ([3]; Malet et al.): 24-48 h
% E ([4]; 254 nm, 5 min): 3.0%
% Z ([4]; 254 nm, 5 min): 91.5%
% imp 1 ([4]; 254 nm, 5 min): 0.0%
% imp 2 ([4]; 254 nm, 5 min): 5.5%
% E ([4]; 254 nm, 10 min): 3.1%
% Z ([4]; 254 nm, 10 min): 90.5%
% imp 1 ([4]; 254 nm, 10 min): 0.0%
% imp 2 ([4]; 254 nm, 10 min): 6.3%
% E ([4]; 254 nm, 15 min): 3.5%
% Z ([4]; 254 nm, 15 min): 86.5%
% imp 1 ([4]; 254 nm, 15 min): 1.3%
% imp 2 ([4]; 254 nm, 15 min): 8.7%
% E ([4]; 254 nm, 30 min): 5.7%
% Z ([4]; 254 nm, 30 min): 74.4%
% imp 1 ([4]; 254 nm, 30 min): 4.3%
% imp 2 ([4]; 254 nm, 30 min): 15.6%
% E ([4]; 254 nm, 45 min): 6.7%
% Z ([4]; 254 nm, 45 min): 65.1%
% imp 1 ([4]; 254 nm, 45 min): 7.8%
% imp 2 ([4]; 254 nm, 45 min): 20.4%
% E ([4]; 254 nm, 1 h): 7.2%
% Z ([4]; 254 nm, 1 h): 56.6%
% imp 1 ([4]; 254 nm, 1 h): 10.2%
% imp 2 ([4]; 254 nm, 1 h): 26.0%
% E ([4]; 254 nm, 1 h 15): 7.5%
% Z ([4]; 254 nm, 1 h 15): 52.7%
% imp 1 ([4]; 254 nm, 1 h 15): 11.4%
% imp 2 ([4]; 254 nm, 1 h 15): 28.4%
% E ([4]; 254 nm, 1 h 30): 8.2%
% Z ([4]; 254 nm, 1 h 30): 43.5%
% imp 1 ([4]; 254 nm, 1 h 30): 14.0%
% imp 2 ([4]; 254 nm, 1 h 30): 34.2%
% E ([4]; 254 nm, 1 h 45): 8.2%
% Z ([4]; 254 nm, 1 h 45): 38.2%
% imp 1 ([4]; 254 nm, 1 h 45): 16.5%
% imp 2 ([4]; 254 nm, 1 h 45): 37.1%
% E ([4]; 254 nm, 2 h): 8.3%
% Z ([4]; 254 nm, 2 h): 32.5%
% imp 1 ([4]; 254 nm, 2 h): 18.2%
% imp 2 ([4]; 254 nm, 2 h): 41.0%
% E ([4]; 254 nm, T0): 1.7%
% Z ([4]; 254 nm, T0): 98.3%
% imp 1 [4, 5]: 0.0%
% imp 2 [4, 5]: 0.0%
% E ([4]; 380 nm, 5 min): 1.6%
% Z ([4]; 380 nm, 5 min): 98.4%
% E ([4]; 380 nm, 10 min): 1.7%
% Z ([4]; 380 nm, 10 min): 98.3%
% E ([4]; 380 nm, 15 min): 1.6%
% Z ([4]; 380 nm, 15 min): 98.4%
% E ([4]; 380 nm, 30 min): 1.8%
% Z ([4]; 380 nm, 30 min): 98.2%
% E ([4]; 380 nm, 45 min): 1.9%
% Z ([4]; 380 nm, 45 min): 98.1%
% E ([4]; 380 nm, 1 h): 2.0%
% Z ([4]; 380 nm, 1 h): 98.0%
% E ([4]; 380 nm, 1 h 15): 2.8%
% Z ([4]; 380 nm, 1 h 15): 97.2%
% E ([4]; 380 nm, 1 h 30): 2.9%
% Z ([4]; 380 nm, 1 h 30): 97.1%
% E ([4]; 380 nm, 1 h 45): 2.9%
% Z ([4]; 380 nm, 1 h 45): 97.1%
% E ([4]; 380 nm, 2 h): 3.3%
% Z ([4]; 380 nm, 2 h): 96.7%
% E ([4]; 380 nm, T0): 1.6%
% Z ([4]; 380 nm, T0): 98.4%
isomerization process at 254 nm compared with 380 nm ([4]; UV light): faster than at 380 nm
time in which the isomerization process can be observed under UV light [4]: 5 min
potency as measured by binding affinity to estrogen receptors, compared with tamoxifen (estrogen receptors): more potency than tamoxifen
